# In ChEMBL document CHEMBL1201862, “PubChem BioAssay data set” (2004):
#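 Values below derive from 48-hour exposures of cells grown in 96-well plates, with endpoints linearly interpolated between the two concentrations bracketing the appropriate inhibition level. Here, GI50 denotes the concentration required for 50% inhibition of growth.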 Activity calls are given as the source filed them. No stated cut-off is given here; in the data, active = GI50 up to about 1.1 µM and inactive = higher.
# Key:
# Assay in all cases: growth of human tumour cells (NCI), 48 h
# A549 = tested on: A549
# XF498 = tested on: XF498
# HCT-116 = tested on: HCT-116
# SR = tested on: SR
# LXFL 529 = tested on: LXFL 529
# UACC-62 = tested on: UACC-62
# HOP-92 = tested on: HOP-92
# UACC-257 = tested on: UACC-257
# SNB-78 = tested on: SNB-78
# SNB-19 = tested on: SNB-19
# EKVX = tested on: EKVX
# NCI-H522 = tested on: NCI-H522
# MDA-N = tested on: MDA-N
# NCI-H460 = tested on: NCI-H460
# A498 = tested on: A498
# SNB-75 = tested on: SNB-75
# Malme-3M = tested on: Malme-3M
# M14 = tested on: M14
# SK-OV-3 = tested on: SK-OV-3
# LOX IMVI = tested on: LOX IMVI
# TK-10 = tested on: TK-10
# RXF 393 = tested on: RXF 393
# CAKI-1 = tested on: CAKI-1
# K562 = tested on: K562
# DLD-1 = tested on: DLD-1
# DMS-114 = tested on: DMS-114
# SN12C = tested on: SN12C
# DMS-273 = tested on: DMS-273
# KM-20L2 = tested on: KM-20L2
# HT-29 = tested on: HT-29
# PC-3 = tested on: PC-3
# RXF 631 = tested on: RXF 631
# SW-620 = tested on: SW-620
# OVCAR-5 = tested on: OVCAR-5
# HCC 2998 = tested on: HCC 2998
# COLO 205 = tested on: COLO 205
# U-251 = tested on: U-251
# NCI-H23 = tested on: NCI-H23
# KM12 = tested on: KM12
# MDA-MB-231 = tested on: MDA-MB-231
# Hs-578T = tested on: Hs-578T
# RPMI-8226 = tested on: RPMI-8226
# MDA-MB-435 = tested on: MDA-MB-435
# SK-MEL-2 = tested on: SK-MEL-2
# HOP-18 = tested on: HOP-18
# OVCAR-4 = tested on: OVCAR-4
# NCI-H226 = tested on: NCI-H226
# SK-MEL-28 = tested on: SK-MEL-28
# ACHN = tested on: ACHN
# SF-268 = tested on: SF-268
# SF-295 = tested on: SF-295
# DU-145 = tested on: DU-145
# SK-MEL-5 = tested on: SK-MEL-5
# CCRF-CEM = tested on: CCRF-CEM
# MCF7 = tested on: MCF7
# HCT-15 = tested on: HCT-15
# UO-31 = tested on: UO-31
# M19-MEL = tested on: M19-MEL
# IGROV-1 = tested on: IGROV-1
# SF-539 = tested on: SF-539
# 786-0 = tested on: 786-0
# OVCAR-8 = tested on: OVCAR-8
# BT-549 = tested on: BT-549
# T47D = tested on: T47D
# MOLT-4 = tested on: MOLT-4
smiles,measurement,setting,value
Nc1ncnc2c(C3OC(CO)C(O)C3O)c[nH]c12 (stereo not given),GI50,A549,3.99 nM (active)
same,GI50,XF498,8.81 nM (active)
same,GI50,HCT-116,10 nM (active)
same,GI50,SR,2.98 nM (active)
same,GI50,LXFL 529,4.82 nM (active)
same,GI50,UACC-62,7.18 nM (active)
same,GI50,HOP-92,< 15 nM (active)
same,GI50,UACC-257,18.5 nM (active)
same,GI50,SNB-78,10 nM (active)
same,GI50,SNB-19,13.1 nM (active)
same,GI50,EKVX,14.4 nM (active)
same,GI50,NCI-H522,6.14 nM (active)
same,GI50,MDA-N,13.1 nM (active)
same,GI50,NCI-H460,2.69 nM (active)
same,GI50,A498,21.3 nM (active)
same,GI50,SNB-75,3.28 nM (active)
same,GI50,Malme-3M,< 13.5 nM (active)
same,GI50,M14,12.3 nM (active)
same,GI50,SK-OV-3,0.552 nM (active)
same,GI50,LOX IMVI,2.82 nM (active)
same,GI50,TK-10,70.5 nM (active)
same,GI50,RXF 393,3.01 nM (active)
same,GI50,CAKI-1,3.06 nM (active)
same,GI50,K562,2.38 nM (active)
same,GI50,DLD-1,0.728 nM (active)
same,GI50,DMS-114,4.21 nM (active)
same,GI50,SN12C,3.77 nM (active)
same,GI50,DMS-273,10 nM (active)
same,GI50,KM-20L2,2.76 nM (active)
same,GI50,HT-29,5.6 nM (active)
same,GI50,PC-3,5.15 nM (active)
same,GI50,RXF 631,7.76 nM (active)
same,GI50,SW-620,1.95 nM (active)
same,GI50,OVCAR-5,8.04 nM (active)
same,GI50,HCC 2998,6.21 nM (active)
same,GI50,COLO 205,10 nM (active)
same,GI50,U-251,8.47 nM (active)
same,GI50,NCI-H23,13.1 nM (active)
same,GI50,KM12,5.33 nM (active)
same,GI50,MDA-MB-231,7.8 nM (active)
same,GI50,Hs-578T,1.29 nM (active)
same,GI50,RPMI-8226,2.56 nM (active)
same,GI50,MDA-MB-435,31.4 nM (active)
same,GI50,SK-MEL-2,10 nM (active)
same,GI50,HOP-18,8.09 nM (active)
same,GI50,OVCAR-4,14.6 nM (active)
same,GI50,NCI-H226,< 13.8 nM (active)
same,GI50,SK-MEL-28,< 21.8 nM (active)
same,GI50,ACHN,1.25 nM (active)
same,GI50,SF-268,10 nM (active)
same,GI50,SF-295,10 nM (active)
same,GI50,DU-145,6 nM (active)
same,GI50,SK-MEL-5,5.64 nM (active)
same,GI50,CCRF-CEM,2.24 nM (active)
same,GI50,MCF7,15.2 nM (active)
same,GI50,HCT-15,3.72 nM
same,GI50,UO-31,4.26 nM (active)
same,GI50,M19-MEL,13.9 nM (active)
same,GI50,IGROV-1,4.22 nM (active)
same,GI50,SF-539,8.13 nM (active)
same,GI50,786-0,3.17 nM (active)
same,GI50,OVCAR-8,2.27 nM (active)
same,GI50,BT-549,13.8 nM (active)
same,GI50,T47D,4.05 nM (active)
same,GI50,MOLT-4,3.36 nM (active)
